Results taken from paper PMC3894633 (Biochemistry, 2013).
Like-named read-outs stand apart in the source and are kept apart here.

What was measured:
mycobacterial Lpd (mLpd) = biological target: T1, mycobacterial Lpd (mLpd) (Mycobacterium tuberculosis, UniProt P9WHH9); format: biochemical
T1 sequence (P9WHH9 1-464): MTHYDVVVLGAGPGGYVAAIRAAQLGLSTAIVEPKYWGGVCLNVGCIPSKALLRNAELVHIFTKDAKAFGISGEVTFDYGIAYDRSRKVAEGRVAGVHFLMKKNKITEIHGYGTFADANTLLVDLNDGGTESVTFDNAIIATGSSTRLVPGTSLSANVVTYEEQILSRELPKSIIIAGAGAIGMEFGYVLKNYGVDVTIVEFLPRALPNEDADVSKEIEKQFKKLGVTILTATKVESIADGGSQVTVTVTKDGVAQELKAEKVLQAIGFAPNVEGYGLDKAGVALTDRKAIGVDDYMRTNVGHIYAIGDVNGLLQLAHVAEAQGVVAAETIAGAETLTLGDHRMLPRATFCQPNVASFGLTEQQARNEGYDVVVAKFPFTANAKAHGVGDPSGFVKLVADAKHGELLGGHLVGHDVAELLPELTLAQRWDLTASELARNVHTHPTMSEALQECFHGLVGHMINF

Mtb = conditions: ref [20]; cited from earlier work
[1] = system: M. tuberculosis ΔpanCDΔlysA; format: cell-based; conditions: for Growth inhibition of M. tuberculosis ΔpanCDΔlysA: 7 days in culture, tested up to 100 μM, inhibition only at 100 μM
human Lpd (hLpd) = biological target: T2, human Lpd (hLpd) (Homo sapiens, UniProt P09622); assay: Human Lpd inhibition, DTNB assay with 10 μM lipoamide; format: biochemical; conditions: highest concentration tested 100 μM
T2 sequence (P09622 36-509): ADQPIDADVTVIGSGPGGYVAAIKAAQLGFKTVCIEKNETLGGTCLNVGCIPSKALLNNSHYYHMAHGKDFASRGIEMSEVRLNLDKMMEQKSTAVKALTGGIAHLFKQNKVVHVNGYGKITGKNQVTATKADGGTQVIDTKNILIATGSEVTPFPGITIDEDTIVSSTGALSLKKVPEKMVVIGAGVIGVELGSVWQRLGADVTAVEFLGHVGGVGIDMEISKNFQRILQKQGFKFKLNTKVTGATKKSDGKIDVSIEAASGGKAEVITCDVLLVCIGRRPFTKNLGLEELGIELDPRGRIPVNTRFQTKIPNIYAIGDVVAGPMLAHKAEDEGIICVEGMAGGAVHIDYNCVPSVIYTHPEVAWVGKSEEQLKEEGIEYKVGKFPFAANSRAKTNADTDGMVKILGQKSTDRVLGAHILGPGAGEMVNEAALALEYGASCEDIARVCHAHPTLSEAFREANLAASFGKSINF

M. bovis BCG = format: cell-based
M. tuberculosis H37Rv = assay: Metabolic profiling of Mtb intracellular metabolites; format: cell-based, Mycobacterium tuberculosis; conditions: Mtb exposed to 75 μM

For `Nc1ncc(Br)cc1S(=O)(=O)NCCC(=O)Nc1cccc(Cl)c1` [K906-3123], which Loss of potency (mycobacterial Lpd (mLpd)) is on record?
Its Loss of potency is “even greater loss of potency”.

Which “Growth inhibitory effect on Mtb” value (Mtb) does the source give for `Cc1cc(NS(=O)(=O)c2ccc(N)cc2)no1` [Sulfamethoxazole] here?
Its value is “little or no growth inhibitory effect”.

With `Nc1ccc(S(N)(=O)=O)cc1` [sulfanilamide] as the compound, how does the “Growth inhibitory effect on Mtb” value (Mtb) read?
Its value is “little or no growth inhibitory effect”.

For `CN(Cc1ccccc1)C(=O)CN(C)S(=O)(=O)c1cc(Br)cnc1N` [E144-0828], which Loss of potency (mycobacterial Lpd (mLpd)) is on record?
The Loss of potency was 100 fold.

For `COC(=O)[C@H]1[C@H]2C[C@@H]3c4[nH]c5cc(OC)ccc5c4CCN3C[C@H]2C[C@@H](OC(=O)c2cc(OC)c(OC)c(OC)c2)[C@@H]1OC` [reserpine, reference compound], which “Growth inhibitory effect on Mtb on its own” value ([1]; 25 μM) is on record?
Its value is “no growth inhibitory effect”.

With `CN(CC(=O)Nc1ccc(F)c(Cl)c1)S(=O)(=O)c1cc(Br)cnc1N` [SL418] as the compound, how does the “Inhibition of hLpd” value (human Lpd (hLpd)) read?
Its value is “did not inhibit”.

What about the “Growth inhibition of M. bovis BCG” value (M. bovis BCG; 7 days in culture, tested up to 100 μM, inhibition only at 100 μM) of the same compound?
The value was “No growth inhibition”.

What about the “Growth inhibition of M. tuberculosis ΔpanCDΔlysA” value [1] of the same compound?
The value was “No growth inhibition”.

With `COc1ccc(CCN(C)CCCC(C#N)(c2ccc(OC)c(OC)c2)C(C)C)cc1OC` (centres unmarked) [verapamil, reference compound] as the compound, how does the “Growth inhibitory effect on Mtb on its own” value ([1]; 50 μM) read?
Its value is “no growth inhibitory effect”.

With `CCN(Cc1ccccc1)C(=O)CN(C)S(=O)(=O)c1cc(Br)cnc1N` [E114-0951] as the compound, how does the Loss of potency (mycobacterial Lpd (mLpd)) read?
Its Loss of potency is 100 fold.

For `COc1ccc(NC(=O)CN(C)S(=O)(=O)c2cc(Br)cnc2N)cc1` [SL827, 2-(2-amino-5-bromo-N-methylpyridine-3-sulfonamido)-N-(4-methoxyphenyl)acetamide], which “Changes in alanine, valine and leucine levels” value (M. tuberculosis H37Rv) is on record?
The value was “no changes”.

What about the “Inhibition of hLpd” value (human Lpd (hLpd)) of the same compound?
The value was “did not inhibit”.

What about the “Growth inhibition of M. bovis BCG” value (M. bovis BCG) of the same compound?
Its value is “No growth inhibition”.

And the “Growth inhibition of M. tuberculosis ΔpanCDΔlysA” value [1]?
The value was “No growth inhibition”.
